The IC50 is the concentration needed to halve the response being measured.

For data set [1], the system named is IFNb production by THP1 cells. The data set can be described thus: IFNb expression by QPCR in THP1 cells transfected with herring testis DNA. The class given is cell-based. The settings on record: for inhibition of IFNb production, effectiveness in words: THP1 cells transfected with DNA, compared with Quinacrine, AMCA, HCQ, Chloroquine; for IC50: Homo sapiens, read-out: IC50 of inhibition of IFNb production by THP1 cells. The text has this: Systemic Lupus Erythematosus (SLE) is strongly associated with increased expression of type I interferon (IFN-I) (Elkon, 2012). Both genetic as well as experimental studies indicate that IFN-I plays a central role in this disease (Lovgren, 2006) (Niewold, 2007). To determine the physiological relevance of our computational analysis and in vitro observance, we examined whether antimalarial drugs could inhibit IFNb production within the cell. […] Using this approach, we transfected THP1 cells with DNA in the presence or absence of antimalarial compounds and quantified IFNb expression by QPCR.
THP1 cells (0.2×10^6) were transfected with 0.5 ug herring testis DNA using Lipofectamine 2000 (Invitrogen) according to the manufacture's instruction. Before transfection, THP1 cells were incubated with different concentration of Hydroxychloroquine or other antimalarial drugs (100, 50, 25, 12.5 μM) for 5 minutes. Cells were stimulated for 16 hours and then harvested for RNA extraction.
Total RNA was isolated from THP1 cells using the RNeasy mini kit (Qiagen, Valencia, Calif.). cDNA was synthesized using 100 ng RNA with the high-capacity cDNA RT-KIT™ using random primers (Applied Biosystems, Foster City, Calif.). Reactions in duplicate were run on an ABI STEPONE PLUS™ using the primers from Qiagen (primer catalog number): a two-stage cycle of 95° C. for 15 s and 60° C. for 1 min was repeated for 40 cycles followed by a dissociation stage. Threshold cycle values were set as a constant threshold at 0.2, and fold changes in gene expression were then calculated using the 2^−ΔΔ^CT method.

The target in data set [2] is T1, cGAS (Homo sapiens, UniProt Q8N884).
T1 construct: made in house; host or cells: E. coli Rosetta BL21 pLysS
T1 sequence (Q8N884 whole entry, species assumed): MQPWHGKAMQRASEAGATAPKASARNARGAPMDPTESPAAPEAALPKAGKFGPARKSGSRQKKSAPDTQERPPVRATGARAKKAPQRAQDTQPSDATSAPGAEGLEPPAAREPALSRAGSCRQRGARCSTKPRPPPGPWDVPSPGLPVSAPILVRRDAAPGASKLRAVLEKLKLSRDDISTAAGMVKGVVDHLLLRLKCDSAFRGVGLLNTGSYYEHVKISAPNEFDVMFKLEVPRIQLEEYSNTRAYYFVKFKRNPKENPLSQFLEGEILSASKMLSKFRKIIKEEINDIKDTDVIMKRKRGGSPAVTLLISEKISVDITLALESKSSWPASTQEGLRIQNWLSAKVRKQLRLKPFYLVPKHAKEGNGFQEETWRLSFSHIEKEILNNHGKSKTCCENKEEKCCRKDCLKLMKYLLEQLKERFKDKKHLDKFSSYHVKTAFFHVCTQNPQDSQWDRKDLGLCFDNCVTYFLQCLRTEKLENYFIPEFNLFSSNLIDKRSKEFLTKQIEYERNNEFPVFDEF
In words: cGAS activity assay: cGAMP production quantified by TLC (IC50 Enzyme Assay). The settings on record: for inhibitory activity on cGAMP production, in words: TLC, FIG. 2C. The class given is biochemical. How it is done: HCQ belongs to a family of antimalarial drugs that share the structure of aminoquinolines. To rapidly screen these antimalarial drugs for their ability to interfere with cGAS activation by ds-DNA, we performed dose titration experiments with drug and quantified cGAMP production using thin layer chromatography (TLC) (FIG. 2A). Reactions were performed in triplicate and normalized to no-inhibitor controls and fit by non-linear regression using Prism […]™ to determine the IC50 of each compound. Each compound yielded dose-response curves similar to HCQ but with different inhibitory activities (FIG. 2B). […] Strikingly, the computational predicted binding affinities of these anti-malaria drugs inversely correlated with the IC50 of anti-malarial drugs, validating the prediction of our computational analysis (FIG. 2D).
Initial characterization of enzyme activity was monitored in the presence of 250 μM ATP, 250 μM GTP, 0-500 μg/mL herring testes DNA, 1.4 μM cGAS, 3.3 nM ^32P-γ-ATP in a buffer composed of 40 mM Tris, 250 mM NaCl, 10 mM MgCl2, pH 7.5. Reactions were incubated for 1 hr at room temperature and subsequently spotted on PEI-cellulose TLC plates and developed using a solvent composition 1:1.5 [v/v] saturated NH4SO4 and 1.5 M KH2PO4 [pH 3.6]. For inhibition assays, compounds were characterized in the presence of the above reaction contents at fixed 100 μg/mL htDNA. TLC plates were exposed to a phosphor-storage screen and imaged using a TYPHOON™ imaging system. (See FIGS. 7-16).
cGAS activity was monitored in the presence of 250 μM ATP, 250 μM GTP, 0-500 μg/ml herring testes DNA. 1.4 μM cGAS. and 3.3 nM [^32P]-ATP in Tris buffer (pH 7.5). After incubation for 1 h at room temperature, samples were spotted on PEI-cellulose Thin Layer Chromatograph (TLC) plates, and developed using a solvent composed of 1:1.5 [v/v] saturated NH4SO4 and 1.5 M KH2PO4 [pH 3.6]. For inhibition assays, compounds were characterized in the presence of the above reaction contents at fixed 100 μg/ml HT DNA. TLC plates were exposed to a phosphor-storage screen and imaged using a TYPHOOON™ imaging system. (FIG. 7).
Thin Layer Chromatograph (TLC) assay was used for the quantification of cGAS inhibition by compounds X5/X6/X7. Reactions were normalized to no-inhibitor controls and fit by non-linear regression using Prizm […]™ to determine the IC50 of each compound. (FIG. 7).

Data set [3] concerns 3 cell lines. The data set can be described thus: Toxicity, average of 3 cell lines @ 50% cell death. The class given is cell-based.
Data set [4] concerns the target STING (Homo sapiens, UniProt Q86WV6). The data set can be described thus: Binding of 32P-c-di-AMP by STING in the presence of HCQ. The settings on record: 32P-c-di-AMP (2 nM), STING (170 μM), different HCQ concentrations.
Data set [5] concerns THP1 cells. In words: PolyIC Lipofectamine transfection of THP1 cells, IL-1b by ELISA. The settings on record: PolyIC transfected THP1 cells, different concentration of HCQ. The class given is cell-based. The source says: PolyIC was transfected by Lipofectamine to THP1 cells with different concentration of HCQ.
In general terms: An ELISA detects its analyte on a solid surface through an enzyme-linked reagent.

For data set [6], the target named is T2, dsDNA/cGAS complex (Homo sapiens, UniProt Q8N884).
T2 construct: made in house; host or cells: E. coli Rosetta BL21 pLysS
T2 sequence (Q8N884 whole entry, species assumed, one chain of several): as the sequence (Q8N884 whole entry, species assumed) above
In words: Electrophoretic mobility shift assay (EMSA) of dsDNA (ISD) binding to cGAS. The settings on record: 0.2 μM ISD, 1.5 μM cGAS, HCQ 0.075~5 mM. The text has this:
To determine whether these anti-malarial drugs could inhibit DNA binding to cGAS in vitro, we performed DNA binding studies by the electrophoretic mobility shift assay (EMSA). As previously shown, addition of increasing concentrations of cGAS to a constant concentration of ds DNA (ISD), results in the protein retarding migration of ISD on the gel (‘gel shift’) and less free DNA (FIG. 1, left panel). To test whether HCQ as a model antimalarial could attenuate the gel shift, we used constant concentrations of both ISD and cGAS (FIG. 1, right panel) in the presence of increasing concentrations of HCQ. As shown, increasing the concentration of HCQ reduced the gel shift caused by the formation of dsDNA/cGAS complexes and led to increasing free DNA at the bottom of the gel. […] Inhibition of formation of dsDNA/cGAS higher order complexes by antimalarial drugs are especially interesting and important since cGAS is activated by dsDNA induced oligomerization and dsDNA/cGAS complex formation is required for cGAS activation.
Electrophoretic mobility shift assay (EMSAs) were performed to measure the DNA-binding ability with or without HCQ in vitro. […] The mixtures were resolved on 1% agarose gel using 1×TBE electrophoresis buffer of at constant voltage of 100 V. The gel was analyzed by using a fluorescence-based EMSA kit (Molecular Probes) according to the manufacturer's protocol. […]
(In EMSA bound probe runs differently from free probe, usually more slowly.)

Setting [7] is: cGAS, fixed 100 μg/mL herring testes DNA, TLC of cGAMP, read-out: IC50 Enzyme Assay.
Where [8] appears, read: THP-1, THP1 cells transfected with herring testis DNA, 16 hours, QPCR.

Structures are written as SMILES. Entries after “also recorded” stand apart in the source; their conditions may differ. Read-outs that look alike come from different tables or passages of the source.

STING, sequence (Q86WV6 whole entry H232R, species assumed): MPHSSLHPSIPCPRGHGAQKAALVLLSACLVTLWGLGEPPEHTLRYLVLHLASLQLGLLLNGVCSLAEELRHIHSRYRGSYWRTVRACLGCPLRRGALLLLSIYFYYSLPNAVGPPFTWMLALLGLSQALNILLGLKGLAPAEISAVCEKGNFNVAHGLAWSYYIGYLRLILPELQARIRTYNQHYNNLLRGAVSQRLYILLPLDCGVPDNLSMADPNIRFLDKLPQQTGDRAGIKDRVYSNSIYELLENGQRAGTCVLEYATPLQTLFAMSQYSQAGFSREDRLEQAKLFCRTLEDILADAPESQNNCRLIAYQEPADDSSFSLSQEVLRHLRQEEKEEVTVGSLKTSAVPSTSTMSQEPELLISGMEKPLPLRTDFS

In the case of `COc1cc(NC(C)CCCN)c2ncccc2c1` (stereo not drawn) [compound 3, Primaquine], the “inhibition of IFNb production, effectiveness in words” value in data set [1] is given as “less effective by about one log order”. In addition, the “inhibitory activity on cGAMP production, in words” value (“inhibitory activity” below) in data set [2] is listed as “very low inhibitory activity”. Also, in data set [2] (setting [7]), the IC50 came to 850 µM.
For `O=C(O)[C@H](Cc1c[nH]c2ccccc12)Nc1c2ccccc2nc2ccccc12` [compound 9], the IC50 in data set [2] (setting [7]) is more than 650 µM.
Turning to `C=C[C@H]1CN2CC[C@H]1C[C@H]2[C@H](O)c1ccnc2ccc(OC)cc12` [compound 5, Quinine], the “inhibition of IFNb production, effectiveness in words” value in data set [1] was “less effective by about one log order”. Moreover, the “inhibitory activity” value in data set [2] was “very low inhibitory activity”. Further, in data set [2] (setting [7]), the IC50 is 2000 µM.
In the case of `COc1ccc2nc3cc(N)ccc3c(N(C)CCCN(C)Cc3ccncc3)c2c1` [compound 14], the IC50 in data set [2] (setting [7]) stood at 23 µM. In data set [3], this compound came in with a Toxicity of 27.4 µM.
Turning to `O=[N+]([O-])c1cccc(Nc2c3ccccc3nc3ccccc23)c1` [compound 11], the IC50 in data set [2] (setting [7]) is more than 650 µM.
In the case of `COc1ccc2nc3cc(Cl)ccc3c(N)c2c1` [compound 6, 9-amino-6-chloro-2-methoxyacridine], the 50% inhibitory concentration (IC50) was 3 to 25 µM in data set [1] (THP-1, 16 h) and 32 µM in data set [2]. Also, the “inhibitory activity” value in data set [2] is reported as “relatively potent inhibitors”.
For the compound `CCN(CC)CCCC(C)Nc1ccnc2cc(Cl)ccc12` (stereo not drawn) [compound 2, Chloroquine], the half-maximal inhibitory concentration (IC50) in data set [1] (THP-1, 16 h) was 3 to 25 µM; in data set [2] (setting [7]) it was 850 µM. The “inhibitory activity” value in data set [2] is “intermediate inhibitory activities”.
In the case of `NCCCCNc1c2ccccc2nc2ccccc12` [compound 21], in data set [2] (setting [7]), the IC50 was found to be 1 µM. In addition, the Toxicity in data set [3] was found to be 16.0 µM.
Regarding `Nc1c2ccccc2nc2ccccc12` [compound 8], the half-maximal inhibitory concentration (IC50) in data set [2] (setting [7]) was found to be 5 µM.
As to `CCN(CCO)CCCC(C)Nc1ccnc2cc(Cl)ccc12` (stereo not drawn) [HCQ, hydroxychloroquine], the IC50 in data set [1] (setting [8]) lay within 3 to 25 µM. Also, the “inhibitory activity” value in data set [2] was “intermediate inhibitory activities”. The “effect on c-di-AMP binding to STING” value in data set [4] is listed as “not c-di-AMP to STING”. Further, the “effect on Lipofectamine transfection efficiency (IL-1b production)” value in data set [5] is on record as “did not interfere with the Lipofectamine transfection efficiency”. In addition, the “effect on dsDNA/cGAS binding (gel shift)” value in data set [6] is “blocked dsDNA/cGAS binding; also recorded: inhibits the DNA binding to cGAS”.
In the case of `CCOc1ccc2nc3cc(N)ccc3c(N)c2c1` [compound 7], in data set [2] (setting [7]), the IC50 came to 10 µM.
Still for that read-out and setting: under `CCOC(=O)c1ccc(Nc2c3ccccc3nc3ccccc23)cc1` [compound 10] stands more than 650 µM; under `COc1ccc2nc3cc(N)ccc3c(N(C)CCCN(C)Cc3ccco3)c2c1` [compound 15, 9-(N-furfuryl-N-methyl-N′-methyl-1′,3′-propanediamine)-3-amino-7-methoxyacridine], 35 µM.
For the compound `CCN(CC)CCCC(C)Nc1c2ccc(Cl)cc2nc2ccc(OC)cc12` (stereo not drawn) [Quinacrine, quinacrine], the IC50 in data set [1] (setting [8]) was 3 to 25 µM. In addition, in data set [2], the “inhibitory activity” value is given as “relatively potent inhibitors”.
On to `CCN(CCO)CCCC(C)Nc1ccnc2cc(Cl)ccc12` (stereo not drawn) [compound 1, hydroxychloroquine], for which the IC50 in data set [2] (setting [7]) came to 350 µM.
As for `CCN(CC)CCCC(C)Nc1c2ccc(Cl)cc2nc2ccc(OC)cc12` (stereo not drawn) [compound 4, quinacrine], in data set [2] (setting [7]), the IC50 is 13 µM. In data set [3], this compound yielded a Toxicity of 33.0 µM.
On the same counts, the results for `COc1ccc2nc3cc(N)ccc3c(N(C)CCCN(C)Cc3ccccc3)c2c1` [compound 13, 9-(N-benzyl-N-methyl-N′-methyl-1′,3′-propanediamine)-3-amino-7-methoxyacridine] are 18 µM and 33.1 µM.
On to `CN(C)c1ccc2cc3ccc(N(C)C)cc3nc2c1` [compound 20], for which the IC50 in data set [2] (setting [7]) came out at 8 µM.
On the same count and under the same terms, under `COc1cc(NS(C)(=O)=O)ccc1Nc1c2ccccc2nc2ccccc12` [compound 12] stands more than 650 µM.
